Experimental data taken from patent publication US20220359084A1, “Methods of Treatments Based Upon Molecular Characterization of Breast Cancer” (The Board of Trustees of the Leland Stanford Junior …, priority 2019, published 2022).

How the values were obtained:
[1] = general statement, no test described; cited from earlier work
[2] = system: patients with metastatic ER-positive breast cancer; assay: Progression free survival by molecular subgroup in a prospective cohort of 812 patients; type: in vivo, human; conditions: for progression free survival after endocrine therapy, high-risk vs lower risk integrative cluster groups: endocrine therapy (fulvestrant or tamoxifen), pooled, groups averaged together, FIG. 47, adj. P=0.0075
Source text: The ability of chemotherapy, targeted therapies, and endocrine therapies on patients within particular molecular subgroups was examined in a prospective cohort of 812 patients with metastatic ER-positive breast cancer. Provided in FIG. […]

[3] = system: PDOs derived from the 19006 patient; assay: Patient derived organoid (PDO) viability, AlamarBlue, patient 19006; type: cell-based; conditions: Homo sapiens, 192 h, ER-positive PDOs categorized into IntClust4, 19006 patient (FIGS. 52A and 52B), 8 days treatment, 'on the order of', units given within the value
Experimental: FIGS. 52A and 52B provide viability curves of patient derived organoids derived from patient 19006, generated in accordance with various embodiments of the invention.
(§1) To assess breast cancer PDOs, the organoids were digested into single cells with TrypLE (Gibco). Cells are strained with a 100 μm filter then seeded as 10,000 cells per well with 10 μl […] (BME) (Cultrex) in a black, clear bottom 96-well plate and covered with 100 μl breast organoid media. Cells are grown for 4 days to form small spheroids. Cells were treated with 6 concentrations of different targeted Therapies (including but not limited to capivasertib, ipatasertib, PF4706871, M2698, alpelisib), as well as negative control (DMSO) and positive control (Triton X-100) in duplicate for 8 days, with drug media refreshed on day 5. On day 8, the plates are manually checked under the microscope to ensure the positive control drug(s) had effectively killed organoids, and that organoids present in the negative control wells were healthy. Cell viability is assessed using AlamarBlue (Thermofisher) by adding the dye to the media in final concentration of 1:10, followed by incubation for 4 hours at 37° C., and […] measurement using a microplate reader (Molecular Devices). IC50 values are computed using R package drc. Averages of IC50s from two to three independent experiments were calculated and visualized using R.
Likewise, capivasertib, ipatasertib, and M22698, but not alpelisib and PF4706871, each provide IC50 on the order of 100 nM to 10 μM for PDOs derived from the 19006 patient (FIGS. 53A and 53B).

[4] = system: patient derived organoids derived from patient 19004; assay: Patient derived organoid (PDO) viability, AlamarBlue, FIGS. 53A and 53B; type: cell-based; conditions: Homo sapiens, 192 h, ER-positive PDOs categorized into IntClust4, text says 19006 patient (FIGS. 53A and 53B), 8 days treatment, 'on the order of', units given within the value
Experimental: FIGS. 53A and 53B provide viability curves of patient derived organoids derived from patient 19004, generated in accordance with various embodiments of the invention.
as §1, with “IC50 values are computed using R package drc.” left out, “R. […]” for “R.”

## C[C@]12CC[C@@H]3c4ccc(O)cc4C[C@@H](CCCCCCCCC[S+]([O-])CCCC(F)(F)C(F)(F)F)[C@H]3[C@@H]1CC[C@@H]2O (stereo partly drawn) [fulvestrant]
[1]
  oral availability: low
[2]; IntClust1, IntClust2 and IntClust6 patients (averaged together), FIG. 48, adj. P value=0.004
  progression free survival probability, aromatase inhibitor vs fulvestrant treatment: patients receiving an aromatase inhibitor had greater survival probability than patients receiving fulvestrant
[2]; IntClust9 patients, FIG. 49, adj. P value=0.361
  progression free survival probability, fulvestrant vs aromatase inhibitor treatment: slightly, yet insignificantly, greater survival probability
[2]
  progression free survival after endocrine therapy, high-risk vs lower risk integrative cluster groups: lower risk groups have higher probability of progression free survival than high-risk groups

## CC/C(=C(\c1ccccc1)c1ccc(OCCN(C)C)cc1)c1ccccc1 [tamoxifen]
[2]
  progression free survival after endocrine therapy, high-risk vs lower risk integrative cluster groups: lower risk groups have higher probability of progression free survival than high-risk groups

## CN(C)C(=O)c1cc2cnc(Nc3ccc(N4CCNCC4)cn3)nc2n1C1CCCC1 [ribociclib]
[2]; IntClust2 patients, pooled CDK4/6 inhibitor group, FIG. 46, adj. P value=0.016
  progression free survival probability, with vs without CDK4/6 antagonist treatment: profoundly greater survival probability

## CO[C@H]1C[C@@H]2CC[C@@H](C)[C@@](O)(O2)C(=O)C(=O)N2CCCC[C@H]2C(=O)O[C@H]([C@H](C)C[C@@H]2CC[C@@H](OCCO)[C@H](OC)C2)CC(=O)[C@H](C)/C=C(\C)[C@@H](O)[C@@H](OC)C(=O)[C@H](C)C[C@H](C)/C=C/C=C/C=C/1C [everolimus]
[2]; IntClust1 patients, FIG. 45, adj. P value=0.023
  progression free survival probability, with vs without mTOR antagonist treatment: profoundly greater survival probability

## Cc1nc(NC(=O)N2CCC[C@H]2C(N)=O)sc1-c1ccnc(C(C)(C)C(F)(F)F)c1 [alpelisib]
[3]
  IC50: 0.1 to 10 µM

## NC(=O)c1cccc2c(N[C@H](CN3CCC3)c3ccc(Cl)c(C(F)(F)F)c3)ncnc12 [M22698]
[3]
  IC50: 0.1 to 10 µM
[4]
  IC50: 0.1 to 10 µM

## CC(C)NC[C@@H](C(=O)N1CCN(c2ncnc3c2[C@H](C)C[C@H]3O)CC1)c1ccc(Cl)cc1 [ipatasertib]
[3]
  IC50: 0.1 to 10 µM
[4]
  IC50: 0.1 to 10 µM
